Measurements reported in patent US9540647B2, “Methods and compositions for the treatment of cancer” (University of South Alabama, priority 2010, dated 2017).
Entries after “also recorded” stand apart in the source; their conditions may differ.

Columns and labels:
OPN [1] = assay: Secreted OPN in conditioned media of MDA-MB-435 cells (Western blot); type: cell-based, human; details: 10 μM and 20 μM cyclopamine vs DMSO
Procedure: Stable vector only and non-targeting (scrambled control) transfectants were also generated. Stable transfectants were selected on medium supplemented with 500 μg/ml Geneticin (Invitrogen). The four GLI1-knocked down clones chosen were based on the extent of GLI1 knockdown and were termed KO1, KO2, KO3, and KO4. The expression of OPN was restored in the KO1 cells by transfecting with pcDNA3.1-OPN. A corresponding vector-only transfectant was also generated. Transfectants were selected on medium containing Geneticin (500 μg/ml) and hygromycin (750 μg/ml). Serum-free conditioned medium harvested from approximately 3.0×10^6 cells after 24 hr was assayed for OPN by immunoblotting.
Western Blotting Analysis—Whole cell lysates were collected in Nonidet P-40 buffer (150 mM NaCl, 50 mM Tris, 1% Nonidet P-40). Isolation of cytosolic and nuclear fractions was done as previously reported (15). Total protein (30 μg) was resolved by SDS-PAGE gel and transferred to polyvinylidene difluoride membranes. […] Secreted OPN was assessed by loading an equal quantity of protein from the serum-free conditioned medium. […]

c-jun and c-fos mRNA = c-jun and c-fos mRNA expression in A2780-CP70 cells (semi-quantitative PCR); type: cell-based, human; details: 70 μM cyclopamine
ERCC1, XPD, XRCC1 = assay: ERCC1, XPD and XRCC1 mRNA levels in A2780-CP70 cells (semi-quantitative PCR); type: cell-based, human; details: single agent at levels associated with 50% cell killing; 6-72 hr
OPN promoter = OPN promoter reporter activity in hFOB cells; type: cell-based, human
Procedure: Empty pGL3 vector was used as control. […] Readings were normalized to total protein content. Each parameter was studied in triplicate and the experiment repeated at least 3 times. The data are represented as percent luciferase activity, which was derived as a percent of the relative light units in treated groups compared with the untreated groups.
Empty pGL3 vector was used as control. Different concentrations of SHH ligand were added to the well the next day. Cells were lysed in Reporter Lysis buffer (Promega) 24 hrs post addition of SHH and both β-galactosidase assay and luciferase assays were done following manufacturer's protocol. Readings were normalized to β-galactosidase. Each parameter was studied in triplicate and the experiment repeated at least 3 times.

OPN [2] = assay: OPN expression in RAW264.7 pre-osteoclasts in response to SHH; type: cell-based, murine; details: RAW264.7 cells
Procedure: Western Blotting Analysis—Whole cell lysates were collected in NP-40 buffer (150 mM NaCl, 50 mM Tris, 1% NP-40). Total protein (30 μg) was resolved by SDS-PAGE gel and transferred to PVDF membranes. Membranes were immunoblotted overnight at 4° C. with antibodies to either SHH (Santacruz, Calif., USA) or IHH (Santacruz). Equal loading was confirmed with anti-β-tubulin (Cell Signaling, Danvers, Mass.). To assess OPN expression upon SHH treatment, […] were grown in 6-well plates in the presence of SHH. After 24 hours the cells were lysed in NP-40 buffer and 30 μg of each experimental group assessed by immunoblotting. To assess for the expression of OPN, MMP9 and CTSK, at the end of Day 6 of differentiation, all the different experimental groups were kept in serum free medium for 24 hrs and both, the conditioned media and whole cell lysates were collected and immunoblotted using antibodies to either anti-mouse OPN (Millipore, Bedford, Mass.), or CTSK (SantaCruz Biotech). Equal loading was confirmed with anti-β-actin (Sigma) antibody. Secreted MMP9 (Santa Cruz Biotech) was assessed by loading equal quantity of protein from the serum-free conditioned medium. Corresponding HRP conjugated secondary antibodies were used for detection; blots were developed with SuperSignal enhanced chemiluminescence substrate (Pierce, Rockford, Ill.) and imaged using a Fuji LAS3000 imager. Detection and quantification of proteins was done using Fuji LAS 3000 apparatus and Multigauge V3.1 software (Fujifilm, Valhalla, N.Y.). Band intensities were measured in arbitrary Units (AU). […]
Luciferase Assay—Cells were co-transfected with the OPN promoter construct, pGL3-OPNB and pSV-β-galactosidase (Promega) (Das, S., et al. (2009) J Biol Chem 284, 22888-22897). […] Readings were normalized to β-galactosidase. […]
Quantitative RT-PCR (qRT-PCR)—cDNA was generated using High Capacity Reverse Transcriptase Kit (Applied Biosystems, Foster City, Calif.). […] Following the experimental regime as described herein (for Osteoclast differentiation/activity) RNA was isolated using Trizol (Invitrogen) and assessed as described herein. […]

| Compound | OPN in the secretome (OPN [1]) | c-fos mRNA levels, peak over 0 hr (c-jun and c-fos mRNA) [fold] | c-jun mRNA levels, increase (c-jun and c-fos mRNA; 6 hr) [fold] | c-jun mRNA levels, increase over 0 hr (c-jun and c-fos mRNA; 24 hr (peak)) [fold] | mRNAs for ERCC1, XPD, or XRCC1 (ERCC1, XPD, XRCC1) | OPN promoter activity (OPN promoter) | expression of OPN (immunoblot) (OPN [2]; 24 hours post SHH treatment) | OPN promoter activity (OPN [2]; 24 hours post-SHH treatment) | levels of OPN mRNA (OPN [2]; recombinant SHH vs untreated) |
| --- | --- | --- | --- | --- | --- | --- | --- | --- | --- |
| CC1=C2C[C@H]3[C@@H](CC=C4C[C@@H](O)CC[C@@]43C)[C@@H]2CC[C@]12O[C@@H]1C[C@H](C)CN[C@H]1[C@H]2C [cyclopamine] | decreased | 27 | 3 | 13 | no increase |  |  |  |  |
| SHH: recombinant Sonic Hedgehog ligand (R & D Systems) |  |  |  |  |  | activates the OPN promoter; also recorded: upregulation in OPN promoter activity | stimulates the expression of OPN | significantly (p<0.05) higher | significantly greater levels of OPN mRNA |
